Measured values from paper PMC12155335, “Phenethyl Acetate as an Agonist of Insect Odorant Receptor Co-Receptor (Orco): Molecular Mechanisms and Functional Insights” (International Journal of Molecular Sciences, 2025).

Key:
Orco homomers = biological target: T1, Orco homomers (Drosophila melanogaster, UniProt Q9VNB5); assay: Two-electrode voltage-clamp in Xenopus laevis oocytes expressing Orco homomers; assay type: cell-based; conditions: for odorant-evoked inward current (activation): Orco alone, −80 mV, octanol 10 μM, PA 10 μM (Figure 2D)
T1 construct: expressed in transfected cells; host or cells: Xenopus laevis oocytes injected with Orco mRNA
T1 sequence (Q9VNB5 1-486): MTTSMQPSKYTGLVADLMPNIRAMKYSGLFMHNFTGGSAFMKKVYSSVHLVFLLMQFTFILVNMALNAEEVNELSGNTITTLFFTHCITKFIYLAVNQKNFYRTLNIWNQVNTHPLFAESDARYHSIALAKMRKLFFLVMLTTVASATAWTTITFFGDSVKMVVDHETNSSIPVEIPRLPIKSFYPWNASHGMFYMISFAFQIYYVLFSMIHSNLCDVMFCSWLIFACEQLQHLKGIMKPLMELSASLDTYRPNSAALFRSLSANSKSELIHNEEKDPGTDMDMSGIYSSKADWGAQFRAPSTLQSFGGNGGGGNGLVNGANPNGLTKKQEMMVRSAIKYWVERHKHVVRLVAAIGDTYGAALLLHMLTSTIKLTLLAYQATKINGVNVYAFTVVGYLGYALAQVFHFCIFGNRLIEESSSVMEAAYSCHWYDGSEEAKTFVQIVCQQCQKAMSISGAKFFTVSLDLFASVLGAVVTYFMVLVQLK
Description: (§1) The D. melanogaster Or subunits (Or1a, Or24a, and Or35a) (FlyBase IDs: FBgn0029521, FBgn0026394, and FBgn0028946) and the odorant receptor co-receptor Orco (FlyBase ID: FBgn0037324) were synthesized as complementary DNA by Cosmogenetech (Seoul, Republic of Korea). The synthesized cDNA constructs were subcloned into the pGEM-HE expression vector. Plasmid transformation was performed using Escherichia coli DH5α competent cells, and recombinant plasmids were isolated using a miniprep protocol. The integrity of the cloned sequences was confirmed by Sanger sequencing. For complementary RNA synthesis, D. melanogaster Or1a, Or24a, Or35a, and Orco cDNA were linearized with appropriate restriction endonucleases, and digestion efficiency was verified via agarose gel electrophoresis. In vitro transcription was carried out using T7 RNA polymerase (mMESSAGE mMACHINE T7 Transcription Kit; Thermo Fisher Scientific, Waltham, MA, USA). The resulting mRNA was precipitated, resuspended in DEPC-treated water, and stored at −80 °C for subsequent experiments.
(§2) Xenopus laevis frogs were obtained from the Korean Xenopus Resource Center for Research (KXRCR000001, Gangwon, Republic of Korea). The isolation and maintenance of Xenopus oocytes followed the standardized protocols described by Pyeon et al. and complied with the ethical guidelines of Chonnam National University (CNU IACUC-YB-2016-07, July 2016). Microinjection of 50 ng of mRNA per oocyte was performed using a nanoliter injector (Drummond Scientific, Vernon Hills, IL, USA). Following injection, the oocytes were incubated at 18 °C in a shaking incubator to facilitate optimal protein expression before electrophysiological recordings.
(§3) The two-electrode voltage-clamp (TEVC) experiments were conducted following established protocols as described in Lee et al.. This methodology ensures the accurate measurement of odorant receptor activation and has been widely used in previous studies on insect olfactory receptors. The molecular interaction between the odorant receptor (Or) and its ligand was examined using Or-expressing oocytes. Electrophysiological recordings were conducted with a two-electrode voltage-clamp system (OC-725C; Warner Instruments, Hamden, CT, USA) and digitized using a Digidata acquisition system (1322A; Molecular Devices, Sunnyvale, CA, USA). The oocyte membrane potential was clamped at −80 mV. Stock solutions of each compound were prepared by dissolving them in ND96 buffer (58.44 mM NaCl, 2 mM KCl, 1 mM MgCl2, 1.8 mM CaCl2, 5 mM HEPES, pH of 7.4) at the appropriate concentrations before use. […]
(§4) All values are presented as the mean ± S.E.M. (standard error of the mean) following data analysis. Data collected using the two-electrode voltage-clamp technique were analyzed with SigmaPlot 10.0 software. […]

uninjected oocytes = assay: Two-electrode voltage-clamp control on uninjected oocytes; assay type: cell-based, Xenopus laevis; conditions: control experiment, TEVC
Description: as §2
as §3, with “mV.” for “mV. Stock solutions of each compound were prepared by dissolving them in ND96 buffer (58.44 mM NaCl, 2 mM KCl, 1 mM MgCl2, 1.8 mM CaCl2, 5 mM HEPES, pH of 7.4) at the appropriate concentrations before use.”

E153A Orco = E153A Orco (Drosophila melanogaster, UniProt Q9VNB5); assay: Two-electrode voltage-clamp, E153A mutant Orco; assay type: cell-based, D. melanogaster; conditions: TEVC
Description: as §2
(§5) The two-electrode voltage-clamp (TEVC) experiments were conducted following established protocols as described in Lee et al.. […]
(§6) To validate the potential binding sites predicted by 3D protein–ligand docking simulations, molecular characterization was conducted through site-directed mutagenesis. […] The effect of these mutations on PA-binding affinity was evaluated through two-electrode voltage-clamp recordings.
as §4

[1] = system: double mutation (W146A + E153A) Orco; assay: Two-electrode voltage-clamp, double-mutant Orco; assay type: cell-based, D. melanogaster; conditions: TEVC (Figure 5)
Description: as §2, §5, §6, §4

Or1a/Orco = biological target: T2, Or1a/Orco (Drosophila melanogaster, UniProt Q9VNB5+Q9W5G6); assay: Two-electrode voltage-clamp in Xenopus laevis oocytes expressing Or1a/Orco; assay type: cell-based, D. melanogaster; conditions: TEVC; for odorant-evoked inward current (activation): −80 mV, octanol 30 μM, PA 10 μM (Figure 2A)
T2 construct: expressed in transfected cells; host or cells: Xenopus laevis oocytes injected with in vitro transcribed mRNA (pGEM-HE)
T2 sequence (Q9W5G6 1-392): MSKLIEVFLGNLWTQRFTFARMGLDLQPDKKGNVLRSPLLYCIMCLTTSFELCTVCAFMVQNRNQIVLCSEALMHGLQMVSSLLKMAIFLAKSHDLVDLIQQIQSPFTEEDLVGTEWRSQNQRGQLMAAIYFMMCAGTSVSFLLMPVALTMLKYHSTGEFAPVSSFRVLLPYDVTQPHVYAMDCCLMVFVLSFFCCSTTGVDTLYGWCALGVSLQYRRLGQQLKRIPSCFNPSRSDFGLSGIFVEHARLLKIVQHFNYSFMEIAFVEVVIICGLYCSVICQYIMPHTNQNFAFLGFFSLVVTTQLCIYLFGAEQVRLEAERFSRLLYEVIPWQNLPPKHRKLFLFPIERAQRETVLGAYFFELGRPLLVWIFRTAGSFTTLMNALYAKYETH
T2 sequence (Q9VNB5 1-486): T1 sequence (Q9VNB5 1-486)
Description: as §1, §2, §5, §4

Or35a/Orco = biological target: T3, Or35a/Orco (Drosophila melanogaster, UniProt Q9V3Q2+Q9VNB5); assay: Two-electrode voltage-clamp in Xenopus laevis oocytes expressing Or35a/Orco; assay type: cell-based, D. melanogaster; conditions: TEVC; for odorant-evoked inward current (activation): −80 mV, octanol 10 μM, PA 10 μM (Figure 2C)
T3 construct: expressed in transfected cells; host or cells: Xenopus laevis oocytes injected with in vitro transcribed mRNA (pGEM-HE)
T3 sequence (Q9V3Q2 1-409): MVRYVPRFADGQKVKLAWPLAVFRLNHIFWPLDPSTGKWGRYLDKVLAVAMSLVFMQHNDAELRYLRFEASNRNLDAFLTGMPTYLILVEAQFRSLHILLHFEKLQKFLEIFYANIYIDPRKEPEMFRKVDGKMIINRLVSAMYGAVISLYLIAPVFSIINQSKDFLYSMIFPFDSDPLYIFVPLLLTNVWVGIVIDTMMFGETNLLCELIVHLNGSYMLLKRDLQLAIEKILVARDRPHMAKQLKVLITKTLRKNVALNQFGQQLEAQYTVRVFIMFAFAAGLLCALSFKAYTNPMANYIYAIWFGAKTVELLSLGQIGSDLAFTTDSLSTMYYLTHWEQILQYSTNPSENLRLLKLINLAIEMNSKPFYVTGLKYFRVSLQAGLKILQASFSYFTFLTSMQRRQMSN
T3 sequence (Q9VNB5 1-486): T1 sequence (Q9VNB5 1-486)
Description: as §1, §2, §5, §4

Or24a/Orco = biological target: T4, Or24a/Orco (Drosophila melanogaster, UniProt P81913+Q9VNB5); assay: Two-electrode voltage-clamp in Xenopus laevis oocytes expressing Or24a/Orco; assay type: cell-based, D. melanogaster; conditions: TEVC; for odorant-evoked inward current (activation): −80 mV, octanol 10 μM, PA 10 μM (Figure 2B)
T4 construct: expressed in transfected cells; host or cells: Xenopus laevis oocytes injected with in vitro transcribed mRNA (pGEM-HE)
T4 sequence (P81913 1-398): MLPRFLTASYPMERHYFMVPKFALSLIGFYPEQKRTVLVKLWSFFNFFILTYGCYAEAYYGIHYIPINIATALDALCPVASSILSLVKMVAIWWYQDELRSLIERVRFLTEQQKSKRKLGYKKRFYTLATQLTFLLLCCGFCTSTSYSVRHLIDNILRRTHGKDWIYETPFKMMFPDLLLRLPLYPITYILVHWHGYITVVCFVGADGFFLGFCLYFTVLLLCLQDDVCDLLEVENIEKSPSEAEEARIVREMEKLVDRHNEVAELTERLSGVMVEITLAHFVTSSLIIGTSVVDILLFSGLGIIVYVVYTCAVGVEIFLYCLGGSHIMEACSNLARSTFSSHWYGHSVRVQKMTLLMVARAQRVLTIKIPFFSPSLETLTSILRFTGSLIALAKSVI
T4 sequence (Q9VNB5 1-486): T1 sequence (Q9VNB5 1-486)
Description: as §1, §2, §5, §4

W146A Orco = W146A Orco (Drosophila melanogaster, UniProt Q9VNB5, W150A); assay: Two-electrode voltage-clamp, W146A mutant Orco; assay type: cell-based, D. melanogaster
Sequence of W146A Orco (Q9VNB5 whole entry W150A): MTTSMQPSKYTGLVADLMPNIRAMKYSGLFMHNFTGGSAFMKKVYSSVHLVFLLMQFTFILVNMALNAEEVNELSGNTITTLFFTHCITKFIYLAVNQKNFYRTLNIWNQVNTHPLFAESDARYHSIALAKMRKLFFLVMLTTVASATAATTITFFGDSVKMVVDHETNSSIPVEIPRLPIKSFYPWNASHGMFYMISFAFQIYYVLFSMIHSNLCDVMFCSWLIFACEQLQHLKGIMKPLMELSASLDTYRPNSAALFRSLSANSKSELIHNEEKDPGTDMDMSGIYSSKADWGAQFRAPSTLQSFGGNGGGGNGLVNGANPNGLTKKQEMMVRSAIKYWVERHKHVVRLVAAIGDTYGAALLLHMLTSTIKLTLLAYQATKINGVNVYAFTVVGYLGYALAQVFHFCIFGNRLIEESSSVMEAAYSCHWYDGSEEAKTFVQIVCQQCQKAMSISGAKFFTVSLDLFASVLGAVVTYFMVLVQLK
Description: as §2, §5, §6, §4

[2] = system: Or1a, Or24a, and Or35a co-expressed with mutant Orco; assay: Two-electrode voltage-clamp, Or1a, Or24a, Or35a co-expressed with mutant Orco; assay type: cell-based, D. melanogaster; conditions: TEVC, 10 µM octanol, mutant Orco co-expressed with Ors
Description: as §2
The two-electrode voltage-clamp (TEVC) experiments were conducted following established protocols as described in Lee et al.. This methodology ensures the accurate measurement of odorant receptor activation and has been widely used in previous studies on insect olfactory receptors. The molecular interaction between the odorant receptor (Or) and its ligand was examined using Or-expressing oocytes. […]
as §6

[3] = Xenopus oocytes, holding potential −80 mV, mean ± SEM, read-out: half-maximal effective concentration (EC50)

CC(=O)OCCc1ccccc1 [PA, phenethyl acetate]
odorant-evoked inward current (activation) (Orco homomers; TEVC): induced inward currents | voltage dependence of activation (current–voltage relationship) (Orco homomers; voltage ramps, PA 0.3 µM and 3 µM, Orco homomeric receptor (Figure 3D)): voltage-independent activation | EC50 (Orco homomers; wild-type Orco homomers, TEVC, Xenopus oocytes, holding potential −80 mV, mean ± SEM, read-out: half-maximal effective concentration (EC50)): 0.4 ± 0.2 µM | effect on uninjected oocytes (uninjected oocytes): no effect | EC50 (E153A Orco; E153A Orco homomers, Xenopus oocytes, −80 mV): 12.8 ± 1.9 µM | PA-induced currents versus wild type (E153A Orco; single mutation E153A, 10 µM PA (Figure 5)): significantly reduced | PA activation versus wild type [1]: nearly abolished | EC50 (Or1a/Orco; [3]): 2.1 ± 1.2 µM | odorant-evoked inward current (activation) (Or1a/Orco): induced inward currents | EC50 (Or35a/Orco; [3]): 5.9 ± 1.1 µM | odorant-evoked inward current (activation) (Or35a/Orco): induced inward currents | EC50 (Or24a/Orco; [3]): 2.8 ± 0.2 µM | odorant-evoked inward current (activation) (Or24a/Orco): induced inward currents | EC50 (W146A Orco): 17.9 ± 2.1 µM | PA-induced currents versus wild type (W146A Orco; single mutation W146A, TEVC, 10 µM PA (Figure 5)): significantly reduced

CCCCCCCCO [octanol, reference compound]
odorant-evoked inward current (activation) (Orco homomers; TEVC): failed to activate | odorant-evoked inward current (activation) (Or1a/Orco): induced robust inward currents | odorant-evoked inward current (activation) (Or35a/Orco): induced robust inward currents | odorant-evoked inward current (activation) (Or24a/Orco): induced robust inward currents | activation by octanol with mutant Orco [2]: remained consistent
